Here are results for one molecule from patent publication US20210403415A1, “COMPOUNDS AND METHODS TO ATTENUATE TUMOR PROGRESSION AND METASTASIS” (THE TRUSTEES OF INDIANA UNIVERSITY, priority 2018, published 2021).

Entries after “also recorded” stand apart in the source; their conditions may differ.

Assay [1] addresses uPAR.uPA protein-protein interaction (Homo sapiens, UniProt Q03405). Kind of assay: Fluorescence polarization, urokinase receptor with peptide AE147. The format is binding. The note with it: 24 h at 4° C. An excerpt: (§1) The selectivity of the compounds was explored with two unrelated protein-protein interactions between (i) the urokinase receptor (uPAR) and its ligand urokinase (uPA); and (ii) the a subunit of the voltage-gated calcium channel Cav2.2 with its β subunit Cavβ3. […] Both proteins have cysteine residues capable of forming covalent adducts.
(§2) FIG. 4D illustrates BLI measurements of the binding of TEAD4 to captured Yap when biotin-labeled GST-Yap1 was captured onto streptavidin-conjugated biolayer interferometry sensors which were dipped into varying concentrations of TEAD4. (mean±s.d.; n=3). […] FIG. 4F illustrates measured fluorescence polarization when increasing concentration of HIS-TEAD2 was mixed with 16 nM FAM-Yap60-99 peptide (mean±s.d.; n=3). FIG. 4G illustrates measured fluorescence polarization when HIS-TEAD2 was incubated with increasing concentration of compounds for 24 h at 4° C. followed by addition of FAM-Yap60-99 (mean±s.d.; n=3). FIG. 4H illustrates measured fluorescence polarization when urokinase receptor (uPAR) was incubated with varying concentrations of compounds for 24 h at 4° C. followed by addition of a urokinase-derived fluorescently-labeled peptide AE147 (mean±s.d.; n=3). […]

For assay [2], the target named is Cav2.2 α·β protein-protein interaction (Homo sapiens, UniProt P54284). Kind of assay: Fluorescence polarization, Cavβ3 with labeled α-subunit peptide. Type of assay: binding. The conditions noted are these: 24 h at 4° C.
Sequence of Cav2.2 α·β protein-protein interaction (P54284 whole entry): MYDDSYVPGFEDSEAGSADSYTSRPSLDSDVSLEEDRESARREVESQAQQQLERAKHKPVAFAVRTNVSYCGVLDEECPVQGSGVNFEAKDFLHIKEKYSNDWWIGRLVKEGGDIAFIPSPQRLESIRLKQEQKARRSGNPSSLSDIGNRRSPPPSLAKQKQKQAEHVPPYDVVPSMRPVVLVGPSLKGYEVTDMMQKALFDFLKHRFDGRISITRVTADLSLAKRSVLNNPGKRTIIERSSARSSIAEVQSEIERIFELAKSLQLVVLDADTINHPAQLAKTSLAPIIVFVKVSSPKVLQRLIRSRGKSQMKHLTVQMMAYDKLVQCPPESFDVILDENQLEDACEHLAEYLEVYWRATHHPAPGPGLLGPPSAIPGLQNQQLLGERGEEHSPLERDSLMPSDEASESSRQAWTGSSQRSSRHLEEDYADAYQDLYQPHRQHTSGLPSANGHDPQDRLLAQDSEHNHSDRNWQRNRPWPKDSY
From the text: as §1, §2
In general terms: Polarisation of emitted light reports the rotation of a fluorescent probe.

Assay [3] has as its target T1, TEAD4 binding to full-length Yap1 (Homo sapiens, UniProt Q15561).
T1 construct: TEAD4 (217-434), TEAD4 (217-434) Cys367Ser mutant and Yap1 (Full-length) were expressed as GST-fusion proteins; GST (N); made in house; host or cells: E. coli BL-21 (DE3), pGEX-6P-1
Kind of assay: Biolayer interferometry, TEAD4 binding to captured full-length GST-Yap1. The note with it: 100 nM TEAD4 pre-incubated 24 or 48 h at 4° C. As to the method:
Biolayer interferometry was measured on OctetRed 384 (ForteBio, Menlo Park, Calif.) using PBS with 0.025% v/v Tween-20 at 30° C. with constant shaking at 1000 rpm. Streptavidin-conjugated sensors (ForteBio, Menlo Park, Calif.) were loaded with 30 μg/ml biotin-labeled GST-Yap or biocytin and were introduced to 1-1000 nM TEAD4. The sensors were regenerated with 5 mM HCl solution after each interaction. For compound inhibition study, 100 nM TEAD4 was pre-incubated with […] compound 2 in 2% v/v DMSO for 24 h at 4° C. before interaction with captured GST-Yap.

For assay [4], the system named is TEAD4 transcriptional activity. Description: TEAD4 luciferase reporter assay (CTGF promoter) in HEK-293 cells. The format is cell-based. As to the method:
HEK-293 cells plated at 2.4×10^4 cells/well in a 96-well microplate were transfected after 24 hours with the a pGL3.1 reporter containing the CTGF promoter and a plasmid encoding TK-Renilla luciferase in combination with control vectors or vectors that express Yap1 and TEAD4. […] Luciferase activity was measured according to the Dual-Glo luciferase assay (Promega) instructions using a Biotek Synergy Neo2 plate reader. Relative luciferase activity represents the ratio of firefly/renilla luminescence values.

In assay [5] the test system is TEAD4 Cys367Ala mutant transcriptional activity. Description: TEAD4 luciferase reporter assay with transfected Cys367Ala mutant in HEK-293 cells. The format is cell-based. As to the method: HEK-293 cells plated at 2.4×10^4 cells/well in a 96-well microplate were transfected after 24 hours with the a pGL3.1 reporter containing the CTGF promoter and a plasmid encoding TK-Renilla luciferase in combination with control vectors or vectors that express Yap1 and TEAD4. After 48 h cells, were treated with 0.5, 1.0, 5.0 or 10 μM of compound 2 for another 48 h. Luciferase activity was measured according to the Dual-Glo luciferase assay (Promega) instructions using a Biotek Synergy Neo2 plate reader. Relative luciferase activity represents the ratio of firefly/renilla luminescence values.
The effect of compound 2 on the intracellular transcriptional activity of TEAD4 was compared to its effects on the interaction of TEAD4 with Yap (FIG. 7A-7F). […] To further establish the selectivity of the small molecule, the TEAD4 transcriptional activity luciferase reporter assays were repeated using instead transfected Cys367Ala mutant. […] To establish that compound 2 forms a covalent adduct with TEAD4 in cells, a biotin-conjugated variant termed compound 9 was synthesized. […] (A) The activity of the TEAD4 luciferase reporter was measured in HEK-293 cells at 24 h treated with either vehicle or compound 2 (TED-347); mean±s.d.; n=3 replicates. (B) The activity of the TEAD4 luciferase reporter was measured in HEK-293 cells treated with either vehicle or compound 2 (TED-347); mean±s.d.; n=2 replicates. […]
(In general: A reporter such as luciferase makes a cellular process visible.)

Assay [6] deals with TEAD4 transcriptional activity. Description: TEAD4 luciferase reporter in GBM43 cells. The format is cell-based, human. As to the method:
FIG. 8A illustrates relative percent viability of spheroids of patient-derived GBM43 glioblastoma cell lines were grown and treated with compound 1, compound 2, and compound 5; mean±s.d.; n=3 biological replicates. FIG. 8B illustrates the measured activity of the TEAD4 luciferase reporter in GBM43 cells treated with either vehicle or compound 2. CNYT corresponds to no transfection; mean±s.d.; n=3 biological replicates. FIG. 8C illustrates qRT-PCR analysis of CTGF levels following treatment of HEK-293T cells with compounds; mean±s.d.; n=3 biological replicates. FIG. 8D illustrates relative percent viability of spheroids of patient-derived GBM43 glioblastoma cell lines were grown and treated with temozolomide; mean±s.d. of biological replicates (n=3). P values were calculated using two-tailed t-tests. *P<0.05, **P<0.005, ***P<0.0005.

Sequence of uPAR.uPA protein-protein interaction (Q03405 23-305 limits assumed): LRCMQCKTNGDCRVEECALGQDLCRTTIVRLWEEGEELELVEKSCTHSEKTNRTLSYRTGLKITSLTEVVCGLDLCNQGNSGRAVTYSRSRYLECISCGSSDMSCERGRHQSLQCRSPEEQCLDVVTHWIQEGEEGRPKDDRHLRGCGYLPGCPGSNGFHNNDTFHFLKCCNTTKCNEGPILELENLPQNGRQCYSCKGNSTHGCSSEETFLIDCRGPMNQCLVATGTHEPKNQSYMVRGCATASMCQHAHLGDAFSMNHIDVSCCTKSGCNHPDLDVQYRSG
T1 sequence (Q15561 217-434): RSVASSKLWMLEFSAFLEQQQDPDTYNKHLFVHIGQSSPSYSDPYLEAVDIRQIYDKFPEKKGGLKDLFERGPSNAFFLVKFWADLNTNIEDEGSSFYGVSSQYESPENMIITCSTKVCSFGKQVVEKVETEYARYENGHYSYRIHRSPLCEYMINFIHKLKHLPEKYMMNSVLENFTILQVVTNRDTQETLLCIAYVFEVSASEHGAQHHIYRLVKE

On to `O=C(CCl)c1ccccc1Nc1cccc(C(F)(F)F)c1` [Compound 2, 2-chloro-1-(2-((3-(trifluoromethyl)phenyl)amino)phenyl)ethanone], for which the “inhibition of uPAR.uPA interaction” value in assay [1] is “no inhibition”. In addition, in assay [2], the “inhibition of Cav2.2 α·β interaction” value was “no inhibition”. Moreover, in assay [3], the “inhibition of TEAD4 binding to full-length Yap1” value is “dose- and time-dependent inhibition”. In assay [4] (5 μM, 48 h), the “reduction in reporter activity” value is “over 70%”. The “reporter activity” value in assay [4] (10 μM, 48 h) is listed as “complete loss of reporter activity”. In addition, the “TEAD transcriptional activity” value in assay [4] (24 h) was “Less activity is observed at 24 h; also recorded: inhibits TEAD transcriptional activity in a concentration-dependent manner”. Moreover, the “inhibition of mutant TEAD4 transcriptional activity” value in assay [5] is “did not result in the inhibition”. Further, the “TEAD4 transcriptional activity in GBM43 cells” value in assay [6] was “inhibited TEAD4 transcriptional activity”.
